Data reported in publication PMC6101970 (Oncogene, 2018).

Molecular target: ATR/ATRIP (human) (Homo sapiens, UniProt Q13535)
Assay: HTRF kinase assay, GST-cMyc-p53 Ser15 phosphorylation
Assay type: biochemical

Chain of ATR/ATRIP (human) (Q13535 whole entry): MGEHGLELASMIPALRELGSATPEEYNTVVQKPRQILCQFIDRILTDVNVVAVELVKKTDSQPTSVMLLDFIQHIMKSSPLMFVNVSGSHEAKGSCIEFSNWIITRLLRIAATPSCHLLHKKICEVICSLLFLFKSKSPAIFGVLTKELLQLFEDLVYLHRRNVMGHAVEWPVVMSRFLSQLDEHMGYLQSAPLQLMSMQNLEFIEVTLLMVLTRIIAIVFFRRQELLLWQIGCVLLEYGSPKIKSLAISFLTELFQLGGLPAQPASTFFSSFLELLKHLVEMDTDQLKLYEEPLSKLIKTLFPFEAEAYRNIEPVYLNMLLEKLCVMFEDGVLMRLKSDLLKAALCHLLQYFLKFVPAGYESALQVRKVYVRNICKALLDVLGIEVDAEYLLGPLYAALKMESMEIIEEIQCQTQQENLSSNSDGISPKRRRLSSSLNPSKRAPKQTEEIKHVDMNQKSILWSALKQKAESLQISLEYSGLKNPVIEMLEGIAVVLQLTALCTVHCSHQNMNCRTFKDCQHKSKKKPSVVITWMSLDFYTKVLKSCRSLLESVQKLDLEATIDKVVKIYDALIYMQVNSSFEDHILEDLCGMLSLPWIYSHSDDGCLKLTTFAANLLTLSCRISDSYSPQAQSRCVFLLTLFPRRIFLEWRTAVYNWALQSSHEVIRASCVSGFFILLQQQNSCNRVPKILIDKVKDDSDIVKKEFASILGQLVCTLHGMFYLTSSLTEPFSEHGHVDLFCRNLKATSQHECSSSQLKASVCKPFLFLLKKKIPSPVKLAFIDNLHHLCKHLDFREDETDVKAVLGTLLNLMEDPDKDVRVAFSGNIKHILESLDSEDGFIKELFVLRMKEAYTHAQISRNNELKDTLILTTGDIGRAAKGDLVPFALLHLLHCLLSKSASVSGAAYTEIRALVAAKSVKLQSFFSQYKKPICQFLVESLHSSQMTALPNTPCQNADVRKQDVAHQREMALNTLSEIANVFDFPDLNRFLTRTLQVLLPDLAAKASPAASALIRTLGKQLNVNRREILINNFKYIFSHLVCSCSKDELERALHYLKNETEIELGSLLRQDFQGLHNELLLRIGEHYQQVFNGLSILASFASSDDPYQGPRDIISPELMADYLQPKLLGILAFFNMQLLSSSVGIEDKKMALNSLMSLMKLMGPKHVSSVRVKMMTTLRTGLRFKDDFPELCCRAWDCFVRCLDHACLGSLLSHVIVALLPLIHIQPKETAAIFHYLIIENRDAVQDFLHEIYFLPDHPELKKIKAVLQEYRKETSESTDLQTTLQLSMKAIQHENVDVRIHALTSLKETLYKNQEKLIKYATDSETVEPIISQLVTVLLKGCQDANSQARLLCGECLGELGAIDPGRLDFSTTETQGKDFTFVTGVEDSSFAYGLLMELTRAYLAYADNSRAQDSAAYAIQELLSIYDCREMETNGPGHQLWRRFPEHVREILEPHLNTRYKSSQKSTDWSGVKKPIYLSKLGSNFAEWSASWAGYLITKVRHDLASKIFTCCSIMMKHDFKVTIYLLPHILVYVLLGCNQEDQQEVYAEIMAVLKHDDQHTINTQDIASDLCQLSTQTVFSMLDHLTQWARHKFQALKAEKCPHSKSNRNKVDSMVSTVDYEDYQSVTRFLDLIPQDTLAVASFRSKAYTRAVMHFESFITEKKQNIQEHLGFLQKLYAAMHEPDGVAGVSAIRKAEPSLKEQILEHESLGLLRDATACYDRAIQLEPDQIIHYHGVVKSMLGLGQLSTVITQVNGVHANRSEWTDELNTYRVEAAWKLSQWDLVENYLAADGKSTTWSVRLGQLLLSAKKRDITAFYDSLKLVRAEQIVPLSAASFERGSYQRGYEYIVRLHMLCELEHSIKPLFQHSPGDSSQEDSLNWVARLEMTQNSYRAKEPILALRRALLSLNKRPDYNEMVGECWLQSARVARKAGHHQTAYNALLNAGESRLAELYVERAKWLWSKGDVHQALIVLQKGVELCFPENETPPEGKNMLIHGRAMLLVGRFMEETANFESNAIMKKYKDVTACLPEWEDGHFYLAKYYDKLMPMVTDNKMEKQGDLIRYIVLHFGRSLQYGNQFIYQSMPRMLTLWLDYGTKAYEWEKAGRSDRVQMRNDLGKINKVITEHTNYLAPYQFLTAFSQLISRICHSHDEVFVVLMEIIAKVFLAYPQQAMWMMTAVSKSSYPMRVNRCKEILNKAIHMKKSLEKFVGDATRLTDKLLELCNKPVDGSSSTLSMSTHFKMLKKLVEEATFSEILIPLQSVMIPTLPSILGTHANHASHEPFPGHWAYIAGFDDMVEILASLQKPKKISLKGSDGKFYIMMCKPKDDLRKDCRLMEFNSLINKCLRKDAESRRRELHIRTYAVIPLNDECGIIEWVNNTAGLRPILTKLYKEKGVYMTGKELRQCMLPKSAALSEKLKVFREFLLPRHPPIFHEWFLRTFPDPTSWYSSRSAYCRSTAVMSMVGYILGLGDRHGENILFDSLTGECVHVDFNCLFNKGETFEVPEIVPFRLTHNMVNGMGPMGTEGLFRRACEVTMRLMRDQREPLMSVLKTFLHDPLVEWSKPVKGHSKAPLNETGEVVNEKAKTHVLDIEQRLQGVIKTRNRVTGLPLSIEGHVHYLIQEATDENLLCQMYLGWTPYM
Chain of ATR/ATRIP (human) (Q8WXE1 whole entry partner): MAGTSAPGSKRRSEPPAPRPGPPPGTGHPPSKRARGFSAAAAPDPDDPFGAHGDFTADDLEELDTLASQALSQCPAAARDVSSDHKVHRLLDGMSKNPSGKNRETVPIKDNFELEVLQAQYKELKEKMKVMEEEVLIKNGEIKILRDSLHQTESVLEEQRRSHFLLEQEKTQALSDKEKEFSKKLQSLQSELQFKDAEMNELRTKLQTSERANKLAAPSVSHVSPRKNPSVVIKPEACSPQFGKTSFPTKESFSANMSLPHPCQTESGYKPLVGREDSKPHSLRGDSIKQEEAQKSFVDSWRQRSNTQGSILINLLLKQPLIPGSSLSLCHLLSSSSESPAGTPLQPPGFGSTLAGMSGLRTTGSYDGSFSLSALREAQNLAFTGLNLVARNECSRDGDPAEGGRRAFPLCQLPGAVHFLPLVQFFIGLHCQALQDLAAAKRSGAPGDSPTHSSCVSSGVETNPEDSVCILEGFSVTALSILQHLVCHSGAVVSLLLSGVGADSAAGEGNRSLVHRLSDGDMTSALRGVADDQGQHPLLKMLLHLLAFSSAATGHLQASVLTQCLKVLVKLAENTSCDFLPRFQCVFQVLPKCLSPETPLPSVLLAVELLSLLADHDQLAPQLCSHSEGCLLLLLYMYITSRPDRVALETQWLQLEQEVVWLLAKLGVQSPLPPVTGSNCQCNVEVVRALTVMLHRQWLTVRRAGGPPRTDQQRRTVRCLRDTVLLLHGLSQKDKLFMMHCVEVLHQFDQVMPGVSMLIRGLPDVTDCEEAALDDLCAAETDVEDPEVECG

Row | SMILES | IC50 [µM]
1 | COc1nnc2ccc(N3CCC(c4ccc(OCCN5CCN(C)C(=O)[C@H]5C)cc4)CC3)nn12 [AZD5153] | > 10
2 | Cc1sc2c(c1C)C(c1ccc(Cl)cc1)=N[C@@H](CC(=O)OC(C)(C)C)c1nnc(C)n1-2 [JQ1] | > 10
